Converted amounts (≈) assume the structure as drawn. The source made the active and inactive calls. No cut-off for these calls is given here.

The nature of series [1]: Solubility of the compound by UV-spectrometry. Type of series: physicochemical.
The nature of series [2]: Permeability of compound by PAMPA-BBB assay. Type of series: ADME. The settings on record: read-out: permeability. Background: PAMPA measures passive passage across an artificial lipid membrane.
Series [3] in a line: Cytotoxicity against rat PC12 cells assessed as cell viability at 1 to 10 uM measured after 24 hrs by MTT assay relative to control. Particulars: dose 1-10 µM, read-out: Activity. Format: toxicity, cell-based, PC-12.
Series [4] deals with PC-12. Briefly: Anti-ferroptotic activity against RSL-3 induced ferroptosis in rat PC12 cells assessed as increase in cell viability at 10 uM measured after 24 hrs by MTT assay relative to control. Type of series: functional.
The test system of series [5] is PC-12. Briefly: Neuroprotective activity against H2O2-induced neuronal death in rat PC12 cells assessed as increase in cell viability at 10 uM measured after 24 hrs by MTT assay relative to control. Format: functional. On the technique in general: Formazan colour is commonly taken as a measure of viable cells.
Series [6] relates to BV-2. Briefly: Antiinflammatory activity in mouse BV-2 cells assessed as […] LPS-induced TNFalpha production at 1 to 10 uM and measured after 24 hrs by ELISA. Type of series: functional, cell-based. The settings on record: dose 1-10 µM, DDE = dose-dependent effect. In general terms: In an ELISA, binding on a coated surface is turned into a signal by an enzyme label.

Series [7] in a line: Cytotoxicity against LPS induced mouse BV-2 cells assessed as inhibition in cell viability at 20 uM measured by MTT assay. Particulars: BV-2 cells.
A short description of series [8]: Inhibition of LPS induced NO production in mouse BV-2 cells by Griess reagent based analysis. Type of series: functional, cell-based.
For series [9], the system named is BV-2. Briefly: Antiinflammatory activity in mouse BV-2 cells assessed as suppression of LPS-induced IL-1beta secretion at 10 uM and measured after 24 hrs by ELISA. Format: functional, cell-based.
Another series deals with Acetylcholinesterase (Electrophorus electricus, UniProt O42275). Briefly: Mixed type inhibition of electric eel AChE by reciprocal Lineweaver-Burk plot analysis.
Chain of Acetylcholinesterase (O42275 whole entry): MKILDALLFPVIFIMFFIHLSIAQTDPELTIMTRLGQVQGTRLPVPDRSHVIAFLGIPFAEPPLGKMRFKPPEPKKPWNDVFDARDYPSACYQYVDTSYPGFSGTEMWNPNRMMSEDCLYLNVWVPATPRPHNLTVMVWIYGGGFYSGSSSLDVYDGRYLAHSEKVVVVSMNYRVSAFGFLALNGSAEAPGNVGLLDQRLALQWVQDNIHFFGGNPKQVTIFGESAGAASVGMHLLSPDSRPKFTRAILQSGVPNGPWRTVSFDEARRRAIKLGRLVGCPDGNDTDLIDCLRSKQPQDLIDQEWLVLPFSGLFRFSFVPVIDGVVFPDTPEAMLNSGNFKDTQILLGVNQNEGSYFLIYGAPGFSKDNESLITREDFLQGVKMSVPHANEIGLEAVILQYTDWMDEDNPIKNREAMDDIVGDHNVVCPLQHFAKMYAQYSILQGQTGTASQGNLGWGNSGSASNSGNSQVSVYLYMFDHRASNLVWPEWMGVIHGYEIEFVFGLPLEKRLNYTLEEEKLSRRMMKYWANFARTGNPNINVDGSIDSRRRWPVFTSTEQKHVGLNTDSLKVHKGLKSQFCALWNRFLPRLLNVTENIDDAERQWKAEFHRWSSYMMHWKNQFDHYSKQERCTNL
In series [10] the target is Acetylcholinesterase (Electrophorus electricus) (UniProt O42275). Briefly: Inhibition of electric eel AChE at 20 uM using acetylthiocholine iodide as substrate preincubated with enzyme for 20 mins followed by substrate addition and measured after 45 mins by Ellman's method. Particulars: time 65.0 min.
Chain of Acetylcholinesterase (Electrophorus electricus) (O42275 24-633 limits assumed): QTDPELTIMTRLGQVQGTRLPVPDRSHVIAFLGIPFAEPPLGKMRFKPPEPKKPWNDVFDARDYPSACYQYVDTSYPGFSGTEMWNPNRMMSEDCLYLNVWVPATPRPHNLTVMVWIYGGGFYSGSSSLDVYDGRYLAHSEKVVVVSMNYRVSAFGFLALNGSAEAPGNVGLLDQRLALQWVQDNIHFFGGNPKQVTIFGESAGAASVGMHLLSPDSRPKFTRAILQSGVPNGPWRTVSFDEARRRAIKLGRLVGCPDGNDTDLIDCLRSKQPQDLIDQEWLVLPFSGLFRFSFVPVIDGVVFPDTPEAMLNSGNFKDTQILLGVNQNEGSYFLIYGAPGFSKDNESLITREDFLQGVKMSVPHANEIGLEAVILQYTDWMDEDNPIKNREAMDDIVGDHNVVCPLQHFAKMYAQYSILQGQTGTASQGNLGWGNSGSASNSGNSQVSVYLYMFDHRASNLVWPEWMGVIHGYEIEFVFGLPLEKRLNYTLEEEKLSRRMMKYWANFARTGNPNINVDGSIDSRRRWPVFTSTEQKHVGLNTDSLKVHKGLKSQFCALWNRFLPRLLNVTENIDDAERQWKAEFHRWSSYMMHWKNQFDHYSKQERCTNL
Series [11] can be described thus: Antioxidant activity assessed as DPPH radical scavenging activity at 20 uM incubated for 30 mins under dark condition by microplate reader based assay. Format: functional.
Series [12] deals with BV-2. Briefly: Antiinflammatory activity in mouse BV-2 cells assessed as increase in LPS-induced Arg1 level at 10 uM by ELISA. Format: functional, cell-based.
Series [13] relates to BV-2. Briefly: Antiinflammatory activity in mouse BV-2 cells assessed as reduction in LPS-induced COX-2 expression at 0.5 uM by Western blot analysis relative to control. Type of series: functional, cell-based.
For series [14], the system named is BV-2. Briefly: Antiinflammatory activity in mouse BV-2 cells assessed as reduction in LPS-induced iNOS expression at 0.5 uM by Western blot analysis relative to control. Type of series: functional, cell-based.
Series [15] relates to BV-2. Briefly: Antiinflammatory activity in mouse BV-2 cells assessed as reduction in LPS-induced iNOS expression at 0.1 to 5 uM by Western blot analysis relative to control. Format: functional, cell-based. The settings on record: dose 0.1-5 µM, DDE = dose-dependent effect.
Series [16] is described as follows: Metal chelating activity assessed as compound Zn2+ complex formation by measuring maximum absorption wavelength shift at 25 uM incubated for 30 mins by UV-visible spectrophotometry.
The test system of series [17] is BV-2. Briefly: Antiinflammatory activity in mouse BV-2 cells assessed as reduction in LPS-induced COX-2 expression at 0.1 to 5 uM by Western blot analysis relative to control. Format: functional, cell-based. Particulars: dose 0.1-5 µM, DDE = dose-dependent effect.
Series [18] can be described thus: Metal chelating activity assessed as Cu2+-compound complex formation by measuring maximum absorption wavelength shift at 25 uM incubated for 30 mins by UV-Visible spectrophotometry.
Series [19] in a line: Metal chelating activity assessed as Cu2+-compound complex formation at compound:Cu2+ molar ratio of 1:1 to 1:4 at 25 uM incubated for 30 mins by UV-visible spectrophotometry.
A short description of series [20]: Metal chelating activity assessed as compound Fe2+ complex formation by measuring maximum absorption wavelength shift at 25 uM incubated for 30 mins by UV-visible spectrophotometry.
The nature of series [21]: Metal chelating activity assessed as compound Mg2+ complex formation by measuring maximum absorption wavelength shift at 25 uM incubated for 30 mins by UV-visible spectrophotometry.
Series [22] is described as follows: Metal chelating activity assessed as compound Ca2+ complex formation by measuring maximum absorption wavelength shift at 25 uM incubated for 30 mins by UV-visible spectrophotometry.
The target of series [23] is Prostaglandin G/H synthase 2 (Homo sapiens) (UniProt P35354). Briefly: Inhibition of human COX2 at 40 uM by microplate reader assay.
Chain of Prostaglandin G/H synthase 2 (Homo sapiens) (P35354 whole entry, looked up): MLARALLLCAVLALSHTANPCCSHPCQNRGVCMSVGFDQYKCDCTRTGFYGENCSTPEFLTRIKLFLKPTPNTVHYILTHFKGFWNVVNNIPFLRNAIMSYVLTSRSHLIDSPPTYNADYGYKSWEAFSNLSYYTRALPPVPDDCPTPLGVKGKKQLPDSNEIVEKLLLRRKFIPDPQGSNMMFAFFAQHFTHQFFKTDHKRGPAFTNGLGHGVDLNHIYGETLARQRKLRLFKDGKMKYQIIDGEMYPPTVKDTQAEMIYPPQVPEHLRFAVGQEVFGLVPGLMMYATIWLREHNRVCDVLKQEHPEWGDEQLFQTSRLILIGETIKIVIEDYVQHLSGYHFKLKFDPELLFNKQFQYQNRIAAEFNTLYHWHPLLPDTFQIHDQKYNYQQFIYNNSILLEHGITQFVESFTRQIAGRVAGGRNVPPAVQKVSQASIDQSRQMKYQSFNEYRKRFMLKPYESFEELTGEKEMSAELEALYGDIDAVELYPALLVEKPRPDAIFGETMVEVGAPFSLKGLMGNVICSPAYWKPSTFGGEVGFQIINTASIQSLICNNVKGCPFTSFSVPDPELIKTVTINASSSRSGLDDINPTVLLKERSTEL

For `CC1(C)Oc2ccc(/C(Cn3ccnc3)=N/OC(=O)Cc3cccc4ccccc34)cc2O1`, the solubility (in general, how much of the substance goes into solution per volume) in [1] is 509 µg/mL (≈ 1150 µM). Besides, in series [2], the Papp amounted to 9.2 ×10⁻⁶ cm/s. Also, the viability at 24 h, up to 10 µM in series [3] was greater than 95%. Further, the Activity in the series with PC-12 [4] was 59%; in the series on PC-12 [5] it was 84%; in the series with BV-2 [6], “Dde”. Moreover, in series [7], the viability at 20 µM is 94.8%. In [8], it took 1020 nM to reach a half-maximal effect (EC50). In addition, the outcome with BV-2 [9] was Active.

In turn, `CC1(C)Oc2ccc(/C(Cn3ccnc3)=N/OC(=O)c3ccc4ccccc4c3)cc2O1` displayed a solubility in [1] of 316 µg/mL (≈ 738 µM). Further, at Acetylcholinesterase, the Ki (usually a dissociation constant, usually derived from enzyme kinetics or from competition with a known ligand) was found to be 308 nM. The Papp in series [2] turned out to be 10.7 ×10⁻⁶ cm/s. Further, the inhibition (usually the percentage by which the read-out fell short of the control) in series [10] was determined as 67%; in series [23] it was 92%. Further, the viability at 24 h, up to 10 µM in [3] is greater than 95%. The Activity in the series with PC-12 [4] is 58%; with PC-12 [5], 83%; in series [11], 25.5%; with BV-2 [15], “Dde”; in the series on BV-2 [6] it was “Dde”; in the series on BV-2 [17], “Dde”. The outcome (in the series on BV-2 [12]; in the series with BV-2 [13]; with BV-2 [14]; in series [16]; with BV-2 [9]; in [18]) was Active. For the same compound, the result in series [19], in series [20], in series [21] and in series [22] was Active. In series [7], the viability at 20 µM is 94.1%. The concentration giving a half-maximal response (EC50) (as a rule, the concentration that produces a half-maximal response) in series [8] is 570 nM.

The record behind these values is ChEMBL document CHEMBL5154664, “Imidazolylacetophenone oxime-based multifunctional neuroprotective agents: Discovery and structure-activity relationships” (Eur J Med Chem, 2022).
